Values joined by “and” are separate entries in the source; they are usually repeats but may differ in a detail not shown here. Equal entries are not always repeated.
Test system: 817829-284-R-J1-PDC multi-cell spheroid viability
Assay: Anticancer human tumor 817829-284-R-J1-PDC patient-derived colon adenocarcinoma cell line growth inhibition [PI3K]
Settings: for viability, T/C: stronger effect = lower value
Method in brief: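 Spheroid viability read-out. Co-cultures contained the tumor line plus HUVEC and human MSCs. Each agent was paired with a PI3K inhibitor (inavolisib, alpelisib, duvelisib, copanlisib) across half-log dilutions starting at clinical Cmax, or at 10 microM when Cmax was unknown.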

[1] = curve of first compound, second compound 0.00316 µM
[2] = curve of first compound, second compound 0.01 µM
[3] = curve of first compound, second compound 0.0316 µM
[4] = curve of first compound, second compound 0.1 µM
[5] = curve of first compound, second compound 0.316 µM
[6] = curve of first compound, second compound 1 µM
[7] = second compound 0.00316 µM, first compound 0.0316 µM
[8] = second compound 0.00316 µM, first compound 0.1 µM
[9] = second compound 0.00316 µM, first compound 0.316 µM
[10] = second compound 0.00316 µM, first compound 1 µM
[11] = second compound 0.00316 µM, first compound 3.16 µM
[12] = second compound 0.00316 µM, first compound 10 µM
[13] = second compound 0.01 µM, first compound 0.0316 µM
[14] = second compound 0.01 µM, first compound 0.1 µM
[15] = second compound 0.01 µM, first compound 0.316 µM
[16] = second compound 0.01 µM, first compound 1 µM
[17] = second compound 0.01 µM, first compound 3.16 µM
[18] = second compound 0.01 µM, first compound 10 µM
[19] = second compound 0.0316 µM, first compound 0.0316 µM
[20] = second compound 0.0316 µM, first compound 0.1 µM
[21] = second compound 0.0316 µM, first compound 0.316 µM
[22] = second compound 0.0316 µM, first compound 1 µM
[23] = second compound 0.0316 µM, first compound 3.16 µM
[24] = second compound 0.0316 µM, first compound 10 µM
[25] = second compound 0.1 µM, first compound 0.0316 µM
[26] = second compound 0.1 µM, first compound 0.1 µM
[27] = second compound 0.1 µM, first compound 0.316 µM
[28] = second compound 0.1 µM, first compound 1 µM
[29] = second compound 0.1 µM, first compound 3.16 µM
[30] = second compound 0.1 µM, first compound 10 µM
[31] = second compound 0.316 µM, first compound 0.0316 µM
[32] = second compound 0.316 µM, first compound 0.1 µM
[33] = second compound 0.316 µM, first compound 0.316 µM
[34] = second compound 0.316 µM, first compound 1 µM
[35] = second compound 0.316 µM, first compound 3.16 µM
[36] = second compound 0.316 µM, first compound 10 µM
[37] = second compound 1 µM, first compound 0.0316 µM
[38] = second compound 1 µM, first compound 0.1 µM
[39] = second compound 1 µM, first compound 0.316 µM
[40] = second compound 1 µM, first compound 1 µM
[41] = second compound 1 µM, first compound 3.16 µM
[42] = second compound 1 µM, first compound 10 µM
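Also: spheroids exposed to agents for seven days before readout.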
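For viability, T/C in this document: percent of vehicle DMSO control viability which is 100%.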

Question: What does the source list for `CC1(C)CCC(Nc2ncc(C(F)(F)F)c(-c3c[nH]c4c(P(C)(C)=O)c(C#N)ccc34)n2)CN1` (stereo not given) + CC(Nc1ccc2c(c1)OCCn1cc(N3C(=O)OCC3C(F)F)nc1-2)C(N)=O?
Answer: IC50 [1]: < 31.6 nM; IC50 [2]: < 31.6 nM; IC50 [3]: < 31.6 nM; IC50 [4]: < 31.6 nM; IC50 [5]: < 31.6 nM; IC50 [6]: < 31.6 nM; viability, T/C [7]: 27.5%; viability, T/C [8]: 24.9%; viability, T/C [9]: 36.7%; viability, T/C [10]: 28.7%; viability, T/C [11]: 30%; viability, T/C [12]: 0.96%; viability, T/C [13]: 26.9%; viability, T/C [14]: 25.7%; viability, T/C [15]: 25.2%; viability, T/C [16]: 33.6%; viability, T/C [17]: 26.4%; viability, T/C [18]: 1.03%; viability, T/C [19]: 24.1%; viability, T/C [20]: 28.1%; viability, T/C [21]: 25.9%; viability, T/C [22]: 32%; viability, T/C [23]: 24.6%; viability, T/C [24]: 0.85%; viability, T/C [25]: 25.2%; viability, T/C [26]: 28.4%; viability, T/C [27]: 32.1%; viability, T/C [28]: 27.7%; viability, T/C [29]: 29.2%; viability, T/C [30]: 1.66%; viability, T/C [31]: 23.4%; viability, T/C [32]: 28.7%; viability, T/C [33]: 26%; viability, T/C [34]: 22.8%; viability, T/C [35]: 27.9%; viability, T/C [36]: 1.09%; viability, T/C [37]: 21.7%; viability, T/C [38]: 24.1%; viability, T/C [39]: 25.8%; viability, T/C [40]: 26.2%; viability, T/C [41]: 26.6%; viability, T/C [42]: 1.56%

Question: Which IC50 [1] does the source give for `C#Cc1c(F)ccc2cc(O)cc(-c3ncc4c(N5CC6CCC(C5)N6)nc(OCC56CCCN5CC(F)C6)nc4c3F)c12` (stereo not given) + COc1c(OCCCN2CCOCC2)ccc2c3n(c(=NC(=O)c4cnc(N)nc4)nc12)CCN3 here?
Answer: > 10000 nM

Question: What about the IC50 [2] of the same compound?
Answer: > 10000 nM

Question: And the IC50 [3]?
Answer: 7450 nM

Question: And the IC50 [4]?
Answer: < 31.6 nM

Question: And the IC50 [5]?
Answer: < 31.6 nM

Question: What about the IC50 [6] of the same compound?
Answer: < 31.6 nM

Question: What about the viability, T/C [7] of the same compound?
Answer: 64.9%

Question: What about the viability, T/C [8] of the same compound?
Answer: 82.5%

Question: And the viability, T/C [9]?
Answer: 83.7%

Question: What about the viability, T/C [10] of the same compound?
Answer: 71.8%

Question: And the viability, T/C [11]?
Answer: 77%

Question: What about the viability, T/C [12] of the same compound?
Answer: 70.2%

Question: What about the viability, T/C [13] of the same compound?
Answer: 86.2%

Question: What about the viability, T/C [14] of the same compound?
Answer: 84%

Question: What about the viability, T/C [15] of the same compound?
Answer: 62.9%

Question: And the viability, T/C [16]?
Answer: 61.8%

Question: What about the viability, T/C [17] of the same compound?
Answer: 69.6%

Question: What about the viability, T/C [18] of the same compound?
Answer: 51.1%

Question: And the viability, T/C [19]?
Answer: 73.8%

Question: What about the viability, T/C [20] of the same compound?
Answer: 41.5%

Question: And the viability, T/C [21]?
Answer: 53.7%

Question: What about the viability, T/C [22] of the same compound?
Answer: 50.4%

Question: What about the viability, T/C [23] of the same compound?
Answer: 74.8%

Question: What about the viability, T/C [24] of the same compound?
Answer: 37.2%

Question: And the viability, T/C [25]?
Answer: 28.6%

Question: And the viability, T/C [26]?
Answer: 40.5%

Question: What about the viability, T/C [27] of the same compound?
Answer: 37.6%

Question: What about the viability, T/C [28] of the same compound?
Answer: 21.4%

Question: What about the viability, T/C [29] of the same compound?
Answer: 37.8%

Question: What about the viability, T/C [30] of the same compound?
Answer: 30.8%

Question: What about the viability, T/C [31] of the same compound?
Answer: 17.4%

Question: And the viability, T/C [32]?
Answer: 26.3%

Question: What about the viability, T/C [33] of the same compound?
Answer: 22.2%

Question: And the viability, T/C [34]?
Answer: 14.9%

Question: What about the viability, T/C [35] of the same compound?
Answer: 18%

Question: And the viability, T/C [36]?
Answer: 12.4%

Question: What about the viability, T/C [37] of the same compound?
Answer: 8.66%

Question: And the viability, T/C [38]?
Answer: 9.22%

Question: What about the viability, T/C [39] of the same compound?
Answer: 8.61%

Question: And the viability, T/C [40]?
Answer: 8.24%

Question: And the viability, T/C [41]?
Answer: 5.56%

Question: What about the viability, T/C [42] of the same compound?
Answer: 6.03%

Question: With `C[C@@H](NC(=O)c1ncnc(N)c1Cl)c1ncc(C(=O)Nc2cc(C(F)(F)F)c(Cl)cn2)s1` as the compound, how does the viability, T/C (compound 0.0316 µM) read?
Answer: 97.5% and 79.4%

Question: And the viability, T/C (compound 0.1 µM)?
Answer: 79.2% and 114%

Question: And the viability, T/C (compound 0.316 µM)?
Answer: 89.2% and 87.8%

Question: What about the viability, T/C (compound 1 µM) of the same compound?
Answer: 70.5% and 67%

Question: And the viability, T/C (compound 3.16 µM)?
Answer: 113% and 64.2%

Question: And the viability, T/C (compound 10 µM)?
Answer: 59.5% and 101%

Question: And the IC50 (curve of compound)?
Answer: > 10000 nM

Question: What does the source list for `CCN1CCN(Cc2ccc(Nc3ncc(F)c(-c4cc(F)c5nc(C)n(C(C)C)c5c4)n3)nc2)CC1`?
Answer: viability, T/C (compound 0.00316 µM): 81.3% and 60.8%; viability, T/C (compound 0.01 µM): 103% and 82.2%; viability, T/C (compound 0.0316 µM): 61.9% and 73.5%; viability, T/C (compound 0.1 µM): 68.2% and 59.2%; viability, T/C (compound 0.316 µM): 55.8% and 49.5%; viability, T/C (compound 1 µM): 58% and 51%; IC50 (curve of compound): > 1000 nM

Question: What does the source list for `CC(C)NCC(C(=O)N1CCN(c2ncnc3c2C(C)CC3O)CC1)c1ccc(Cl)cc1` (stereo not given) + COc1c(OCCCN2CCOCC2)ccc2c3n(c(=NC(=O)c4cnc(N)nc4)nc12)CCN3?
Answer: IC50 [1]: 230 nM; IC50 [2]: 88.4 nM; IC50 [3]: 76.7 nM; IC50 [4]: < 31.6 nM; IC50 [5]: < 31.6 nM; IC50 [6]: < 31.6 nM; viability, T/C [7]: 78.3%; viability, T/C [8]: 51.8%; viability, T/C [9]: 54.5%; viability, T/C [10]: 30.8%; viability, T/C [11]: 23%; viability, T/C [12]: 15.1%; viability, T/C [13]: 65%; viability, T/C [14]: 49.1%; viability, T/C [15]: 24.8%; viability, T/C [16]: 21.6%; viability, T/C [17]: 21.2%; viability, T/C [18]: 10.2%; viability, T/C [19]: 72.6%; viability, T/C [20]: 40.6%; viability, T/C [21]: 29.9%; viability, T/C [22]: 21.4%; viability, T/C [23]: 22.9%; viability, T/C [24]: 9.33%; viability, T/C [25]: 40.7%; viability, T/C [26]: 23.7%; viability, T/C [27]: 26.5%; viability, T/C [28]: 15.4%; viability, T/C [29]: 13.4%; viability, T/C [30]: 8.69%; viability, T/C [31]: 20%; viability, T/C [32]: 19.8%; viability, T/C [33]: 23.6%; viability, T/C [34]: 16.6%; viability, T/C [35]: 8.4%; viability, T/C [36]: 7.04%; viability, T/C [37]: 12.4%; viability, T/C [38]: 12.3%; viability, T/C [39]: 13.2%; viability, T/C [40]: 10%; viability, T/C [41]: 6.2%; viability, T/C [42]: 5%
